One assay deals with T1, Prostaglandin G/H synthase 2 (Homo sapiens, UniProt P35354).
T1 sequence (P35354 whole entry): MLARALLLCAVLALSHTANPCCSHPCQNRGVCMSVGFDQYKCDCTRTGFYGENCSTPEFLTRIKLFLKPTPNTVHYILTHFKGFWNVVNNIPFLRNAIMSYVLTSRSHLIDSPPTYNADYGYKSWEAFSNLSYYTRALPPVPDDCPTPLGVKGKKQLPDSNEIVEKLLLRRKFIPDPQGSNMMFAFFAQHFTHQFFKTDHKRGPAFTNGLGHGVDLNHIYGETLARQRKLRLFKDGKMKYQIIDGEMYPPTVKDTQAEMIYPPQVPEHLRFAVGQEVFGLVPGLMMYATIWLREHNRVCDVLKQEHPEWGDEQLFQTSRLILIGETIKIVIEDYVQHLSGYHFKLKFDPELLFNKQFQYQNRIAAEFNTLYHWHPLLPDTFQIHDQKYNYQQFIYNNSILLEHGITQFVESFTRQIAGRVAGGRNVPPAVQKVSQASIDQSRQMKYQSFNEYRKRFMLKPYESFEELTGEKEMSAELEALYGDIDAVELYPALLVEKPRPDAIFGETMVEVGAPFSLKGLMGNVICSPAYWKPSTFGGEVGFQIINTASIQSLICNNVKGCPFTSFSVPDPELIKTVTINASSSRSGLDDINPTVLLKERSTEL
Nature of the assay: Inhibition of COX-2 (unknown origin) by colorimetric assay.
Details: not given
As for `CCCCNc1cc(C(=O)N2N=C(C)CC2=O)cc(S(N)(=O)=O)c1Oc1ccccc1`, the midpoint of inhibition, the IC50, lay at 5110 nM.

Regarding `C=CCc1ccc(-n2c(-c3cc(NCCCC)c(Oc4ccccc4)c(S(N)(=O)=O)c3)n[nH]c2=S)cc1`, the IC50 (as a rule, the midpoint of a concentration-inhibition curve) worked out at 4590 nM.

In the case of `CCCCNc1cc(C(=O)N/N=c2\scc(-c3ccc(OC)cc3)n2-c2ccccc2)cc(S(N)(=O)=O)c1Oc1ccccc1`, half-maximal inhibition (IC50) required 1520 nM.

In turn, `CCCCNc1cc(-c2n[nH]c(=S)o2)cc(S(N)(=O)=O)c1Oc1ccccc1` registered an IC50 of 5730 nM.

Molecule `CCCCNc1cc(C(=O)N/N=c2\scc(-c3ccc(C)cc3)n2-c2ccccc2)cc(S(N)(=O)=O)c1Oc1ccccc1` had an IC50 of 1520 nM.

On to `CCCCNc1cc(C(=O)N/N=c2\scc(-c3ccc(Cl)cc3)n2-c2ccc(Br)cc2)cc(S(N)(=O)=O)c1Oc1ccccc1`, for which the IC50 is 1520 nM.

`C=CCn1c(-c2ccc(Cl)cc2)cs/c1=N\NC(=O)c1cc(NCCCC)c(Oc2ccccc2)c(S(N)(=O)=O)c1` showed a concentration for half-maximal inhibition (IC50) of 1520 nM.

Consider `C=CCn1c(-c2ccc(C)cc2)cs/c1=N\NC(=O)c1cc(NCCCC)c(Oc2ccccc2)c(S(N)(=O)=O)c1`, for which the IC50 was 1520 nM.

With `CCCCNc1cc(C(=O)N/N=c2\scc(-c3ccc(OC)cc3)n2-c2ccc(Br)cc2)cc(S(N)(=O)=O)c1Oc1ccccc1`, it took 1520 nM to reach half-maximal inhibition (IC50).

Take `CCCCNc1cc(-c2n[nH]c(=S)n2-c2ccccc2)cc(S(N)(=O)=O)c1Oc1ccccc1`: the midpoint of inhibition, the IC50, lay at 280 nM.

Regarding `CCCCNc1cc(C(=O)n2nc(C)cc2C)cc(S(N)(=O)=O)c1Oc1ccccc1`, half-maximal inhibition (IC50) required 4750 nM.

For the molecule `CCCCNc1cc(C(=O)N/N=c2\scc(-c3ccc(Cl)cc3)n2-c2ccccc2)cc(S(N)(=O)=O)c1Oc1ccccc1`, half-maximal inhibition (IC50) was put at 1520 nM.

In the case of `C=CCn1c(-c2ccc(OC)cc2)cs/c1=N\NC(=O)c1cc(NCCCC)c(Oc2ccccc2)c(S(N)(=O)=O)c1`, it took 1520 nM to reach half-maximal inhibition (IC50).

Molecule `CCCCNc1cc(C(=O)N/N=c2\scc(-c3ccc(C)cc3)n2-c2ccc(Br)cc2)cc(S(N)(=O)=O)c1Oc1ccccc1` registered an IC50 of 1520 nM.

The next assay deals with T2, Prostaglandin G/H synthase 2 (Homo sapiens) (UniProt P35354).
T2 sequence (whole entry): T1 sequence (P35354 whole entry)
As to conditions: dose 2-10 nM, time 1.0 min.
Consider `CN1C/C(=C\c2ccc(Cl)s2)C2=NN(c3ccccc3)C(c3ccc(Cl)s3)C2C1` (stereo not given), for which the inhibition (in general, the change of the read-out against control, counted positive when it falls) is less than 98%.

On to `Cc1csc(/C=C2\CN(C)CC3C2=NN(c2ccccc2)C3c2cc(C)cs2)c1` (stereo not given), for which the inhibition is less than 98%.

Take `CN1C/C(=C\c2ccc(Br)s2)C2=NN(c3ccccc3)C(c3ccc(Br)s3)C2C1` (stereo not given): the inhibition is less than 98%.

In the case of `CN1C/C(=C\c2ccc(F)s2)C2=NN(c3ccccc3)C(c3ccc(F)s3)C2C1` (stereo not given), the inhibition was less than 98%.

Molecule `CCc1ccc(/C=C2\CN(C)CC3C2=NN(c2ccccc2)C3c2ccc(CC)s2)s1` (stereo not given) showed an inhibition of less than 98%.

Regarding `Cc1ccc(/C=C2\CN(C)CC3C2=NN(c2ccccc2)C3c2ccc(C)s2)s1` (stereo not given), the inhibition is less than 98%.

As for `CN1C/C(=C\c2ccc(O)s2)C2=NN(c3ccccc3)C(c3ccc(O)s3)C2C1` (stereo not given), the inhibition is less than 98%.

Take `Cc1sc(/C=C2\CN(C)CC3C2=NN(c2ccccc2)C3c2cc(Br)c(C)s2)cc1Br` (stereo not given): the inhibition was less than 98%.

Molecule `CN1C/C(=C\c2cccs2)C2=NN(c3ccccc3)C(c3cccs3)C2C1` (stereo not given) gave an inhibition of less than 98%.

Regarding `CN1C/C(=C\c2ccc([N+](=O)[O-])s2)C2=NN(c3ccccc3)C(c3ccc([N+](=O)[O-])s3)C2C1` (stereo not given), the inhibition was less than 98%.

The target in the next assay is T3, Polyunsaturated fatty acid lipoxygenase ALOX15 (Homo sapiens, UniProt P16050).
T3 sequence (P16050 whole entry): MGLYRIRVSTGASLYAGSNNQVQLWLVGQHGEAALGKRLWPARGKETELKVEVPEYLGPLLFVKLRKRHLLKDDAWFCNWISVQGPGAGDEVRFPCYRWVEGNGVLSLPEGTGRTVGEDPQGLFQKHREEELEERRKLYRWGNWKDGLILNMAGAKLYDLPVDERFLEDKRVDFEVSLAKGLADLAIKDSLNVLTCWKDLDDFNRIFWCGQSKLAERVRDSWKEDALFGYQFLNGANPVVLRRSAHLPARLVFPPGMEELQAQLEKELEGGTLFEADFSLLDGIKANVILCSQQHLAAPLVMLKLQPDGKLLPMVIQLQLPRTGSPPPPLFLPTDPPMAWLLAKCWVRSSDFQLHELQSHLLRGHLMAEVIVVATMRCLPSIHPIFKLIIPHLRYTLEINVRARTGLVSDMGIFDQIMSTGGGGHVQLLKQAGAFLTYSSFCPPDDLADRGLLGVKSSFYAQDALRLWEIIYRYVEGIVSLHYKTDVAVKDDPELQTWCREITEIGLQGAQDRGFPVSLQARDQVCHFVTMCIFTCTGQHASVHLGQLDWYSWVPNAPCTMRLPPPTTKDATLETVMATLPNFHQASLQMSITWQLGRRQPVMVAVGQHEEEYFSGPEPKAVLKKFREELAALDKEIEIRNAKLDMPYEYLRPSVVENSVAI
The assay is described as follows: Inhibition of 15-LOX (unknown origin).
Details: not given
With `Cc1nnc(/N=C2\NC(=O)/C(=C/c3cccnc3)S2)s1`, half-maximal inhibition (IC50) required 3360 nM.

For `Cc1nnc(/N=C2\NC(=O)CS2)s1`, the IC50 is 2540 nM.

Regarding `Cc1nnc(/N=C2\NC(=O)/C(=C/c3ccc(C(C)C)cc3)S2)s1`, the IC50 worked out at 3110 nM.

`Cc1nnc(/N=C2\NC(=O)/C(=C/c3ccsc3)S2)s1`: inhibition was half-maximal at 3360 nM (IC50).

With `Cc1nnc(/N=C2\NC(=O)/C(=C/c3ccc(F)cc3)S2)s1`, the IC50 came to 3110 nM.

In turn, `Cc1nnc(/N=C2\NC(=O)/C(=C/c3ccc(O)cc3)S2)s1` yielded an IC50 of 3110 nM.

In turn, `Cc1nnc(/N=C2\NC(=O)/C(=C/c3ccc(Cl)cc3)S2)s1` yielded an IC50 of 3110 nM.

Regarding `O=C1CS/C(=N/c2nnc(-c3ccc(Br)cc3)s2)N1`, it took 2540 nM to reach half-maximal inhibition (IC50).

Take `CC(c1cc2ccccc2s1)N(O)C(N)=O` (stereo not given) [ZILEUTON]: the IC50 amounted to 15600 nM.

In the case of `O=C1CS/C(=N/c2nnc(-c3ccccc3O)s2)N1`, the IC50 worked out at 2540 nM.

In the case of `COc1ccc(/C=C2\S/C(=N/c3nnc(C)s3)NC2=O)cc1`, 3110 nM corresponded to half-maximal inhibition (IC50).

On to `Cc1ccc(-c2nnc(/N=C3\NC(=O)CS3)s2)cc1`, for which the IC50 is 2540 nM.

Molecule `Cc1nnc(/N=C2\NC(=O)/C(=C/C=C/c3ccccc3)S2)s1` came in with an IC50 of 3360 nM.

Take `O=C1CS/C(=N/c2nnc(-c3ccc(O)cc3)s2)N1`: it took 2540 nM to reach half-maximal inhibition (IC50).

In the case of `Cc1nnc(/N=C2\NC(=O)/C(=C/C3CCCCC3)S2)s1`, the IC50 amounted to 3360 nM.

As for `Cc1nnc(/N=C2\NC(=O)/C(=C/c3ccc(N(C)C)cc3)S2)s1`, the IC50 amounted to 3110 nM.

In the case of `Cc1nnc(/N=C2\NC(=O)/C(=C/c3ccc(Br)cc3)S2)s1`, the IC50 amounted to 3110 nM.

Another assay addresses T4, Polyunsaturated fatty acid 5-lipoxygenase (Homo sapiens, UniProt P09917).
T4 sequence (P09917 whole entry): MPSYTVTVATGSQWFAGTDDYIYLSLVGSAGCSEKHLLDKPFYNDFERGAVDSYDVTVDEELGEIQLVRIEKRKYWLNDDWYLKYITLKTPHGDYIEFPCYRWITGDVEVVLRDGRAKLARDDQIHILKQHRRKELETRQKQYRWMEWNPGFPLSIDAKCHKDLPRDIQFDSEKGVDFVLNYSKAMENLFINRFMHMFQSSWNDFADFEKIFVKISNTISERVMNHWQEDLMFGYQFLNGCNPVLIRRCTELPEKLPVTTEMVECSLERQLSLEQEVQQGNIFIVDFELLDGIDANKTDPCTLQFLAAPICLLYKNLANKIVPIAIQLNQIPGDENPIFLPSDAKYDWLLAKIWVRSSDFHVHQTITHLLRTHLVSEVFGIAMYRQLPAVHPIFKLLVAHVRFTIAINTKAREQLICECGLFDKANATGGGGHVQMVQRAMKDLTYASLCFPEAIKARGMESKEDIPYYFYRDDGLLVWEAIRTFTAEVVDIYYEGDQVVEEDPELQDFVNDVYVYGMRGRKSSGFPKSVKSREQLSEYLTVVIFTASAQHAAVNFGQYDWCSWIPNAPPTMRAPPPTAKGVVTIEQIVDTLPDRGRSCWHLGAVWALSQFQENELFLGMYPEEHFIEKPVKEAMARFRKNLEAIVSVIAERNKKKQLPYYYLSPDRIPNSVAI
The assay is described as follows: Inhibition of 5-LOX (unknown origin) using linoleic acid as substrate preincubated for 5 mins followed by substrate addition by absorbance based analysis.
Details: not given
The molecule `O=C(c1cccs1)c1sc(N(c2ccccc2)c2ccccc2)nc1-c1ccc(C(F)(F)F)cc1` came in with an IC50 of 380 nM.

In turn, `Cc1ccc(-c2nc(N(c3ccccc3)c3ccccc3)sc2C(=O)c2cccs2)cc1` came in with an IC50 of 380 nM.

In turn, `O=C(c1cccs1)c1sc(N(c2ccccc2)c2ccccc2)nc1-c1ccc(F)cc1` yielded an IC50 of 380 nM.

`O=C(c1cccs1)c1sc(Nc2ccccc2)nc1-c1ccc(F)cc1` came in with an IC50 of 380 nM.

Consider `O=C(c1cccs1)c1sc(N2CCOCC2)nc1-c1ccccc1`, for which the IC50 was determined as 380 nM.

In the case of `O=C(/N=c1\scc(-c2ccc(F)cc2)n1-c1ccccc1)c1cccs1`, half-maximal inhibition (IC50) required 380 nM.

On to `O=C(c1cccs1)c1sc(N2CCOCC2)nc1-c1ccc(C(F)(F)F)cc1`, for which the IC50 was determined as 380 nM.

For `O=C(c1cccs1)c1sc(N2CCOCC2)nc1-c1ccc([N+](=O)[O-])cc1`, the IC50 was determined as 380 nM.

Regarding `N#Cc1ccc(-c2nc(N(c3ccccc3)c3ccccc3)sc2C(=O)c2cccs2)cc1`, the IC50 came out at 380 nM.

`Cc1ccc(-c2cs/c(=N\C(=O)c3cccs3)n2-c2ccccc2)cc1` displayed an IC50 of 380 nM.

Take `O=C(c1cccs1)c1sc(N(c2ccccc2)c2ccccc2)nc1-c1ccc([N+](=O)[O-])cc1`: the IC50 is 380 nM.

On to `N#Cc1ccc(-c2cs/c(=N\C(=O)c3cccs3)n2-c2ccccc2)cc1`, for which inhibition was half-maximal at 380 nM (IC50).

Consider `O=C(/N=c1/scc(-c2ccccc2)n1-c1ccccc1)c1cccs1`, for which inhibition was half-maximal at 380 nM (IC50).

Regarding `O=C(/N=c1\scc(-c2ccc(C(F)(F)F)cc2)n1-c1ccccc1)c1cccs1`, the IC50 turned out to be 380 nM.

The molecule `O=C(c1cccs1)c1sc(N(c2ccccc2)c2ccccc2)nc1-c1ccccc1` registered an IC50 of 380 nM.

`N#Cc1ccc(-c2nc(N3CCOCC3)sc2C(=O)c2cccs2)cc1` returned an IC50 of 380 nM.

As to `O=C(c1cccs1)c1sc(N2CCOCC2)nc1-c1ccc(F)cc1`, the midpoint of inhibition, the IC50, lay at 380 nM.

In turn, `Cc1ccc(-c2nc(N3CCOCC3)sc2C(=O)c2cccs2)cc1` came in with an IC50 of 380 nM.

In turn, `O=C(/N=c1\scc(-c2ccc([N+](=O)[O-])cc2)n1-c1ccccc1)c1cccs1` registered an IC50 of 380 nM.

For the origin of these results see ChEMBL document CHEMBL5241111, “Non-steroidal anti-inflammatory drugs: recent advances in the use of synthetic COX-2 inhibitors” (RSC Med Chem, 2022).
